Conditions: Liquid, Vibrating tube method

CCCC[N+](C)(C)C.O=S(=O)([N-]S(=O)(=O)C(F)(F)F)C(F)(F)F [butyltrimethylammonium bis(trifluoromethylsulfonyl)imide]
Conditions	mass density [kg/m3]
278.15 K, 100 kPa	1411.9
278.15 K, 101.33 kPa	1411.6
278.15 K, 1000 kPa	1412.6
278.15 K, 10000 kPa	1419
278.15 K, 20000 kPa	1425.6
278.15 K, 40000 kPa	1438.3
278.15 K, 60000 kPa	1450
278.15 K, 80000 kPa	1460.7
278.15 K, 100000 kPa	1470.6
278.15 K, 120000 kPa	1480.6
279.15 K, 101.33 kPa	1410.6
280.15 K, 101.33 kPa	1409.6
281.15 K, 101.33 kPa	1408.6
282.15 K, 101.33 kPa	1407.7
283.15 K, 101.33 kPa	1406.7
284.15 K, 101.33 kPa	1405.7
285.15 K, 101.33 kPa	1404.8
286.15 K, 101.33 kPa	1403.8
287.15 K, 101.33 kPa	1402.9
288.15 K, 101.33 kPa	1402
289.15 K, 101.33 kPa	1401
290.15 K, 101.33 kPa	1400.1
291.15 K, 101.33 kPa	1399.2
292.15 K, 101.33 kPa	1398.3
293.15 K, 101.33 kPa	1397.4
294.15 K, 101.33 kPa	1396.5
295.15 K, 101.33 kPa	1395.6
296.15 K, 101.33 kPa	1394.7
297.15 K, 101.33 kPa	1393.8
298.15 K, 100 kPa	1394
298.15 K, 101.33 kPa	1392.9
298.15 K, 1000 kPa	1394.7
298.15 K, 10000 kPa	1401.2
298.15 K, 20000 kPa	1408.2
298.15 K, 40000 kPa	1421.2
298.15 K, 60000 kPa	1433.1
298.15 K, 80000 kPa	1444.1
298.15 K, 100000 kPa	1454.5
298.15 K, 120000 kPa	1464.3
299.15 K, 101.33 kPa	1392
300.15 K, 101.33 kPa	1391.1
301.15 K, 101.33 kPa	1390.2
302.15 K, 101.33 kPa	1389.4
303.15 K, 101.33 kPa	1388.5
304.15 K, 101.33 kPa	1387.6
305.15 K, 101.33 kPa	1386.7
306.15 K, 101.33 kPa	1385.8
307.15 K, 101.33 kPa	1385
308.15 K, 101.33 kPa	1384.1
309.15 K, 101.33 kPa	1383.2
310.15 K, 101.33 kPa	1382.4
311.15 K, 101.33 kPa	1381.5
312.15 K, 101.33 kPa	1380.6
313.15 K, 100 kPa	1380.9
313.15 K, 101.33 kPa	1379.7
313.15 K, 1000 kPa	1381.6
313.15 K, 10000 kPa	1388.4
313.15 K, 20000 kPa	1395.7
313.15 K, 40000 kPa	1409.2
313.15 K, 60000 kPa	1421.7
313.15 K, 80000 kPa	1433
313.15 K, 100000 kPa	1443.7
313.15 K, 120000 kPa	1453.7
314.15 K, 101.33 kPa	1378.9
315.15 K, 101.33 kPa	1378
316.15 K, 101.33 kPa	1377.1
317.15 K, 101.33 kPa	1376.3
318.15 K, 101.33 kPa	1375.4
319.15 K, 101.33 kPa	1374.5
320.15 K, 101.33 kPa	1373.7
321.15 K, 101.33 kPa	1372.8
322.15 K, 101.33 kPa	1372
323.15 K, 101.33 kPa	1371.1
324.15 K, 101.33 kPa	1370.3
325.15 K, 101.33 kPa	1369.4
326.15 K, 101.33 kPa	1368.6
327.15 K, 101.33 kPa	1367.7
328.15 K, 101.33 kPa	1366.8
329.15 K, 101.33 kPa	1366
330.15 K, 101.33 kPa	1365.1
331.15 K, 101.33 kPa	1364.3
332.15 K, 101.33 kPa	1363.4
333.15 K, 100 kPa	1363.4
333.15 K, 101.33 kPa	1362.6
333.15 K, 1000 kPa	1364.2
333.15 K, 10000 kPa	1371.6
333.15 K, 20000 kPa	1379.3
333.15 K, 40000 kPa	1393.4
333.15 K, 60000 kPa	1406.4
333.15 K, 80000 kPa	1418.3
333.15 K, 100000 kPa	1429.5
333.15 K, 120000 kPa	1439.8
334.15 K, 101.33 kPa	1361.7
335.15 K, 101.33 kPa	1360.9
336.15 K, 101.33 kPa	1360
337.15 K, 101.33 kPa	1359.2
338.15 K, 101.33 kPa	1358.3
339.15 K, 101.33 kPa	1357.5
340.15 K, 101.33 kPa	1356.7
341.15 K, 101.33 kPa	1355.9
342.15 K, 101.33 kPa	1355
343.15 K, 101.33 kPa	1354.1
344.15 K, 101.33 kPa	1353.3
345.15 K, 101.33 kPa	1352.6
346.15 K, 101.33 kPa	1351.6
347.15 K, 101.33 kPa	1350.8
348.15 K, 100 kPa	1350.3
348.15 K, 101.33 kPa	1349.9
348.15 K, 1000 kPa	1351
348.15 K, 10000 kPa	1358.7
348.15 K, 20000 kPa	1366.7
348.15 K, 40000 kPa	1381.5
348.15 K, 60000 kPa	1394.9
348.15 K, 80000 kPa	1407.1
348.15 K, 100000 kPa	1418.6
348.15 K, 120000 kPa	1429.3
349.15 K, 101.33 kPa	1349.2
350.15 K, 101.33 kPa	1348.3
351.15 K, 101.33 kPa	1347.4
352.15 K, 101.33 kPa	1346.6
353.15 K, 101.33 kPa	1345.7
354.15 K, 101.33 kPa	1344.9
355.15 K, 101.33 kPa	1344
356.15 K, 101.33 kPa	1343.2
357.15 K, 101.33 kPa	1342.3
358.15 K, 101.33 kPa	1341.5
359.15 K, 101.33 kPa	1340.6
360.15 K, 101.33 kPa	1339.8
361.15 K, 101.33 kPa	1338.9
362.15 K, 101.33 kPa	1338
363.15 K, 101.33 kPa	1337
364.15 K, 101.33 kPa	1336.1
365.15 K, 101.33 kPa	1335.2
366.15 K, 101.33 kPa	1334.3
367.15 K, 101.33 kPa	1333.4
368.15 K, 101.33 kPa	1332.5
369.15 K, 101.33 kPa	1331.7
370.15 K, 101.33 kPa	1330.9
371.15 K, 101.33 kPa	1330.1
372.15 K, 101.33 kPa	1329.2
373.15 K, 100 kPa	1329.5
373.15 K, 101.33 kPa	1328.4
373.15 K, 1000 kPa	1329.7
373.15 K, 10000 kPa	1338
373.15 K, 20000 kPa	1346.6
373.15 K, 40000 kPa	1362.3
373.15 K, 60000 kPa	1376.5
373.15 K, 80000 kPa	1389.5
373.15 K, 100000 kPa	1401.5
373.15 K, 120000 kPa	1412.7
398.15 K, 100 kPa	1309.1
398.15 K, 1000 kPa	1308.9
398.15 K, 10000 kPa	1317.8
398.15 K, 20000 kPa	1327
398.15 K, 40000 kPa	1343.7
398.15 K, 60000 kPa	1358.6
398.15 K, 80000 kPa	1372.3
398.15 K, 100000 kPa	1384.8
398.15 K, 120000 kPa	1396.6
